Data from ChEMBL document CHEMBL1201862, “PubChem BioAssay data set” (2004).
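Assay format: 96-well plates, 48-hour exposure. GI50 = concentration required for 50% inhibition of growth.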 Active and inactive are the calls of the source. Cut-off read from the data, not from the text of the source: active = GI50 up to about 1.1 µM and inactive = higher. Where a SMILES comes first, the peptide text is derived from it. [ ]: non-standard residue; d: D form. The star is where a group is joined. ξ: configuration not given here. NMeF = CN[C@@H](Cc1ccccc1)C(=O)O; NMeV = CN[C@H](C(=O)O)C(C)C; ξNMeN = CNC(CC(N)=O)C(=O)O; NMeA = CN[C@@H](C)C(=O)O; ξNMeV = CNC(C(=O)O)C(C)C; Boc = CC(C)(C)OC(=O)*

Columns and labels:
Assay in all cases: NCI anticancer screen, dose series, 48 h
A498 = test system: A498
A549 = test system: A549
BT-549 = test system: BT-549
CCRF-CEM = test system: CCRF-CEM
DU-145 = test system: DU-145
HL-60 = test system: HL-60
HOP-62 = test system: HOP-62
IGROV-1 = test system: IGROV-1
K562 = test system: K562
NCI-H226 = test system: NCI-H226
NCI-H23 = test system: NCI-H23
NCI-H522 = test system: NCI-H522
PC-3 = test system: PC-3
RPMI-8226 = test system: RPMI-8226
SF-268 = test system: SF-268
SF-295 = test system: SF-295
SK-MEL-28 = test system: SK-MEL-28
SW-620 = test system: SW-620
T47D = test system: T47D
TK-10 = test system: TK-10

Measured: GI50

COC(=O)[C@H](C)N(C)C(=O)C(CC(N)=O)N(C)C(=O)[C@H](Cc1ccccc1)N(C)C(=O)[C@@H]1CCCN1C(=O)[C@H](C(C)C)N(C)C(=O)C(C(C)C)N(C)C(=O)[C@@H](NC(=O)OC(C)(C)C)C(C)C (stereo not given in full) (Boc-V[ξNMeV][NMeV]P[NMeF][ξNMeN][NMeA]-OMe)
inactive: A498 > 50 µM | A549 > 50 µM | BT-549 > 50 µM | CCRF-CEM 13.6 µM | DU-145 > 50 µM | HL-60 12.1 µM | HOP-62 > 50 µM | IGROV-1 > 50 µM | K562 > 50 µM | NCI-H226 > 50 µM | NCI-H23 > 50 µM | NCI-H522 > 50 µM | PC-3 > 50 µM | RPMI-8226 > 5 µM | SF-268 41.7 µM | SF-295 > 50 µM | SK-MEL-28 > 50 µM | SW-620 > 50 µM | T47D > 50 µM | TK-10 > 50 µM
